According to patent US5962469A, “Cyclic nitrones” (Hoechst Marion Roussel Inc., priority 1997, dated 1999):

What was measured:
Cerebellar Granule Cells [1] = assay: Protection of cerebellar granule cells against Fe2+-induced damage (viability, MTT); assay type: cell-based; details: Rattus norvegicus, read-out: Viability IC50
Procedure: (§1) 3. Protection of cerebellar granule cells against oxidative damage
(§2) The cyclic nitrones were tested for their ability to protect primary cultures of cerebellar granule cells against oxidative injury induced by treatment with Fe^2+. Cerebellar granule cell cultures were prepared from 8 day old rats as previously described. […] Briefly, 8-10 cerebella were removed and placed in a Krebs-Ringer bicarbonate medium supplemented with BSA and MgSO4. Cerebella were finely chopped and digested with a trypsin/Krebs-Ringer solution. Cells were then dispersed by trituration in Krebs-Ringer containing DNase, MgSO4 and trypsin inhibitor followed by plating at a density of 1×10^6 cells/well in poly-l-lysine coated plate in MEM/10% fetal bovine serum/KCl/glutamine/gentamicin. Media was replaced at 24 hours and cytosine arabinoside added. Experiments were conducted with cells 8-10 days in vitro.
(§3) The nitrones were added in either Locke's solution or in 20% β-cyclodextrins and allowed to incorporate into the cells for 30 min. At this time 20 μl of a 5 mM stock solution of ferrous chloride was added for a final concentration of 100 μM. After 45 min the media was removed and added to 1.5 ml of TBA/TCA (2:1) with 25 μl of 2% BHT and TBARS determined as described above. The absorbance of the control cells (no iron) was subtracted from the iron treated cells and this value taken as the denominator to determine the concentration of nitrone required to inhibit oxidation by 50%.
Fresh MEM media was added to the cells along with 100 μl of MTT. After 4 hrs, 1 ml of cold isopropanol/0.04 N HCl was added, the cells scraped, mixed well and transferred to 13×100 mm glass test tubes. The absorbance resulting from mitochondrial reduction of the MTT (570 nm minus 630 nm) was measured as an assessment of viability. The % cell death was determined by comparison to the absorbance of cells to which no iron was added.

Cerebellar Granule Cells [2] = assay: Protection of cerebellar granule cells against Fe2+-induced oxidation (TBARS); assay type: cell-based; details: Rattus norvegicus, 0.75 h, read-out: TBARS IC50
Procedure: as §1, §2, §3

[3] = OH radical trapping (inhibition of the bleaching of p-NDA, primary assay); assay type: biochemical; details: for IC50: IC50, Fenton chemistry (Fe2+/H2O2), pH 7.0
Procedure: 2. Assessment as .OH Traps
A. Inhibition of the bleaching of p-NDA
Cyclic nitrones were evaluated for .OH trapping activity by a variety of tests. The primary assay was dependent upon the ability of the compounds to inhibit the .OH-dependent bleaching of p-NDA. Bors, W., Michel, C., and Saran, M. (1979) J. Biochem. 95, 621-627. The p-NDA was prepared at 1 mM in 50 mM NaCl, pH 7.0. The hydroxyl radical was generated using Fenton chemistry (Fe^2+ /H2 O2). FeCl2 is dissolved in N2 purged, double distilled […] to a final concentration of 2.5 mM. H2 O2 was prepared from a 30% stock solution (8.8 M) at 1.25 mM in the buffer. Test compounds were solubilized in buffer or ethanol at a concentration of 1 M or 5 M, depending upon solubility.
Assay mixtures in glass cuvettes contained solutions of 0.02 ml of H2 O2, 0.02 ml of test compound, 0.10 ml of p-NDA and 50 mM NaCl, pH 7.0 to a final volume of 0.98 ml. The oxidation was initiated by the addition of 0.02 ml of Fe^2+ and the bleaching of p-NDA was monitored as the loss in absorbance at 440 nm for 100 sec. To generate concentration curves, serial dilutions of the test compounds were made such that a constant volume of 0.02 ml was added to the reaction mixture. Ethanol itself is an .OH trap, thus controls contained an equal volume of ethanol for any test compound requiring this vehicle. The IC50 values for the nitrones were determined by GraphPad InPlot 4 and represent the amount of spin trap required to inhibit the bleaching of p-NDA by 50%.

[4] = Inhibition of lipid peroxidation (soybean phosphatidylcholine liposomes); assay type: biochemical; details: Fe2+-initiated, 37° C., 15 min time point, TBARS, read-out: LIPID OX (IC50)
Procedure: 1. Inhibition of lipid peroxidation
For determination of the ability to inhibit lipid peroxidation, liposomes were prepared from soybean phosphatidylcholine by ethanol injection. An aliquot of phosphatidylcholine was dried in a small glass vial under N2. The lipid was resolubilized in ethanol at a volume of 10 ml per ml of liposomes. Typically, 8 ml volumes of liposomes were prepared per tube and then all preparations were combined to provide a homogenous mixture for the assay. The ethanol containing the lipid was taken up in a Hamilton syringe and injected into the appropriate volume of 50 mM NaCl/10 mM Tris, pH 7.0 at 37° C. with mixing to achieve a final lipid concentration of 0.563 mM.
The liposomes were added to 25 ml beakers in a Dubnoff metabolic shaker at 37° C. To the liposomes were added the test compound (in ethanol or buffer), histidine-FeCl3 250:[…] final), FeCl2 ([…] final, prepared in N2 purged water) and sufficient buffer to achieve a final lipid concentration of 0.5 mM. Oxidations were initiated by the addition of Fe^2^+ and carried out under an air atmosphere with shaking. One ml aliquots were removed at 0,2,4,6,8,10,12 and 15 min and added to 2 ml of 0.67% thiobarbituric acid : 10% trichloroacetic acid (2:1) in 0.25 N HCl containing 0.05 ml of 2% BHT to terminate oxidation. Thomas, C. E., McLean, L. R., Parker, R. A., and Ohlweiler, D. F. (1992) Lipids 27, 543-550.
The samples were heated at 100° C. for 20 min in 13 x 100 mm borosilicate glass tubes covered with marbles to prevent evaporation. After cooling, the tubes were centrifuged at 3,000 rpm for 10 min and the absorbance of the resultant supernatant read at 532 nm-580 nm. Quantitation of thiobarbituric acid reactive substances (TBARS) was determined by comparison to a standard curve of malondialdehyde equivalents generated by acid catalyzed hydrolysis of 1,1,3,3-tetraethoxypropane. The IC50 was determined using the 15 min time point with the computer program GraphPad INPLOT 4. This program uses a nonlinear regression with sigmoidal curve on a semilogarithmic scale.

ischemia-induced damage = details: vitamin E supplementation; cited from earlier work
loss of cell viability = details: prior administration for vitamin E; cited from earlier work
Solubility = assay type: physicochemical; details: for water solubility: noted during work-up
[5] = test system: neuronal cell loss and neurologic deficits; details: stroke, gerbil model; cited from earlier work
[6] = test system: endotoxin associated mortality; details: rats; cited from earlier work
[7] = ESR spectroscopy, gerbils; cited from earlier work
[8] = Metabolites of A isolated from an in vivo experiment; details: relative to Metabolite 2
Source text: Indeed, from the onset, a primary goal has been to find a potent antioxidant which lacks this side effect observed with compound A. In this regard, the following observations were of special interest. […] In order to investigate this possibility, the major metabolite C and a minor, possibly secondary, metabolite (Metabolite 2) were isolated from an in vivo experiment, purified by HPLC, and assigned the structures shown below (FIG. 3). [drawing 16]

Sedation in rats = assay type: in vivo
[9] = Duration of in vivo activity of compound A; parameters: species or system rats; details: relative to the sedative effect
[10] = compared with PBN; cited from earlier work
[11] = compared with PBN; cited from earlier work; remark: listed apart in the source
[12] = Fe2+-induced damage, MTT reduction
[13] = Fe2+-induced damage, 100 μM ferrous chloride, 45 min

IC50 [4] [µM]	SMILES	IC50 (Cerebellar Granule Cells [1]; [12]) [µM]	IC50 (Cerebellar Granule Cells [2]; [13]) [µM]	other results
	[O-][N+]1=Cc2ccccc2C(O)C12CCCCC2 (centres unmarked) [D, 3,4-dihydroisoquinolin-4-ol-3-spirocyclohexane, N-oxide]	588	520	
1720	CC1(C)Cc2ccsc2C=[N+]1[O-] [Compound 13, 5,5-Dimethyl-4,5-dihydrothieno[2,3-c]pyridine N-oxide]			IC50 [3]: 4340 µM
1590	CC1(C)Cc2sccc2C=[N+]1[O-] [Compound 48, 6,6-Dimethyl-6,7-dihydrothieno[3,2-c]pyridine N-oxide]			IC50 [3]: 14400 µM
	[O-][N+]1=Cc2ccccc2C(O)C12CCCC2 (centres unmarked) [F, 3,4-dihydroisoquinolin-4-ol-3-spirocyclopentane, N-oxide]	817	771	
	Cc1c(C)c2c(c(C)c1O)CCC(C)(CCCC(C)CCCC(C)CCCC(C)C)O2 (stereo not drawn) [vitamin E, α-tocopherol]			protective effect against ischemia-induced damage (ischemia-induced damage): some protective effect; protection against loss of cell viability (loss of cell viability): partial protection
	CC1(C)C(=O)c2ccccc2C=[N+]1[O-] [Compound 77, 3,3-Dimethyl-3H-isoquinolin-4-one, N-oxide]	385	830	
100	CC1(C)Cc2c(ccc3ccccc23)C=[N+]1[O-] [Compound 9, 2,2-Dimethyl-1,2-dihydrobenzo[f]isoquinoline N-oxide]			solubility (Solubility; reason for OH radical trapping not measured): low solubility
	CC(C)(C)[N+]([O-])=Cc1ccccc1 [PBN, alpha-phenyl-tert-butyl nitrone]			effect on neuronal cell loss and neurologic deficits [5]: can significantly ameliorate neuronal cell loss and neurologic deficits; IC50 (Cerebellar Granule Cells [1]): 2600 µM; reduction of endotoxin associated mortality [6]: reduce endotoxin associated mortality in rats; IC50 (Cerebellar Granule Cells [2]): 2600 µM; trapping of lipid-derived radicals in cortical tissue [7]: trap lipid-derived radicals in cortical tissue
	CC1(C)C(O)c2ccccc2C=[N+]1[O-] (centres unmarked) [C, 3,3-Dimethyl-3,4-dihydroisoquinolin-4-ol, N-oxide]	1550	1900	water solubility (Solubility): relatively high water solubility; abundance of metabolite in vivo [8]: much more abundant in vivo than Metabolite 2
	CC(=O)OC1c2ccccc2C=[N+]([O-])C1(C)C (centres unmarked) [Compound 76, 4-Acetoxy-3,3-dimethyl-3,4-dihydroisoquinoline, N-oxide]	864	839	
	Cc1cc2c(c(C)c1O)CC(C)(C)N=C2 [Compound 38, 3,3,5,7-Tetramethyl-3,4-dihydroisoquinolin-6-ol]			water solubility (Solubility): high water solubility
1070	CC1(C)Cc2ccoc2C=[N+]1[O-] [Compound 53, 5,5-Dimethyl-4,5-dihydrofuro[2,3-c]pyridine N-oxide]			OH RADICAL TRAPPING (effect) ([3]; at 20 mM): no effect
	O=C1c2ccccc2C=[N+]([O-])C12CCCCC2 [E, 3H-isoquinolin-4-one-3-spirocyclohexane, N-oxide]	39	37	
	O=C1c2ccccc2C=[N+]([O-])C12CCCC2 [G, 3H-isoquinolin-4-one-3-spirocyclopentane, N-oxide]	105	102	
	Cc1cc2c(c(C)c1O)CC(C)(C)[N+]([O-])=C2 [Compound 15, 3,3,5,7-Tetramethyl-3,4-dihydroisoquinolin-6-ol N-oxide]	190	220	
1670	CC1(C)Cc2ccccc2C=[N+]1[O-] [A, 3,4-dihydro-3,3-dimethylisoquinoline N-oxide]			sedation (Sedation in rats; high doses in rats): causes sedation when administered in high doses in rats; time course of sedative effect (Sedation in rats; rats): peaks and declines rapidly; IC50 [3]: 2830 µM; duration of in vivo activity [9]: persists for a considerably longer period of time; hydroxyl radical trapping relative to PBN [10]: better hydroxyl radical traps; inhibition of lipid oxidation relative to PBN [11]: more potent inhibitors of lipid oxidation
69	CC1(C)Cc2ccc3ccccc3c2C=[N+]1[O-] [Compound 10, 3,3-Dimethyl-3,4-dihydrobenzo[h]isoquinoline N-oxide]			
	[O-][N+]1=Cc2ccccc2CC12CCCCC2 [B, spiro [cyclohexane-1,3']3,4-dihydroisoquinoline N-oxide, reference compound]			hydroxyl radical trapping relative to PBN [10]: better hydroxyl radical traps; inhibition of lipid oxidation relative to PBN [11]: more potent inhibitors of lipid oxidation
